Assay results published in patent publication EP2739618B1, “QUINAZOLINE COMPOUNDS AS SERINE/THREONINE KINASE INHIBITORS” (Array Biopharma, Inc., priority 2011, dated 2013).

These molecules were tested against T1, human ERK-2 (Mitogen Activated Kinase 1) (Homo sapiens, UniProt P28482) (assay: ERK-2 Enzymatic Assay). Conditions: TABLE I; 5nM ERK-2 enzyme, 25µM ATP, S/T17 peptide substrate; single assay or mean of multiple assays.
T1 construct: N-terminal 6-His fusion protein in E. coli and corresponding to aa 8-360; 6-His (N); made in house; host or cells: E. coli
T1 sequence (P28482 8-360): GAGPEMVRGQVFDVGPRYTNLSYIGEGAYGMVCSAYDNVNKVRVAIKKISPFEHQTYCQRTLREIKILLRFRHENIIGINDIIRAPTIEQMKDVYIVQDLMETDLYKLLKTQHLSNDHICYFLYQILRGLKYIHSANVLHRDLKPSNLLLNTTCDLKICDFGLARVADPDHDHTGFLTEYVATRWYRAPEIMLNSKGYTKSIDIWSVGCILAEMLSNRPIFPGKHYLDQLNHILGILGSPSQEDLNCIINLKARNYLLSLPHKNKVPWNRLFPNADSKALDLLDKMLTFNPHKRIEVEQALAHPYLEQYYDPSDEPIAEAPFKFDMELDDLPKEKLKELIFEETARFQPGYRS
Assay type: biochemical
Experimental: Compounds were tested in an enzymatic assay using human ERK-2 (Mitogen Activated Kinase 1), recombinantly expressed as an N-terminal 6-His fusion protein in E. coli and corresponding to aa 8-360. The substrate used was the fluorescent Omnia peptide S/T17 (Invitrogen of Carlsbad, CA; Cat. KNZ1171C). Test compounds were diluted in DMSO in 3-fold serial dilutions at 100x final concentrations. […] The assay was run at ambient temperature in a white 384-well polypropylene plate (Nunc, Inc of Naperville, IL; Cat. 267462) collecting data every 50 seconds for approximately 30 minutes on an Envision plate reader (PerkinElmer, Inc. of Waltham, MA); Excitation 340 nm/Emission 495 nm. The data collected from each well was fit to a straight line and the resulting rates were used to calculate percent of control. Percent of control was plotted against compound concentration and IC50 values were determined using a four-parameter fit. Representative data is in TABLE I and TABLE II. The reported IC50 may be from a single assay or the mean of multiple assays.
`Cn1cc([C@@H](NC(=O)c2ccc3cnc(NC4CCOCC4)nc3c2)c2ccc(C#N)c(Cl)c2)cn1` (stereo in doubt) [Compound I-50, (S)-N-((3-chloro-4-cyanophenyl)(1-methyl-1H-pyrazol-4-yl)methyl)-2-(tetrahydro-2H-pyran-4-ylamino)quinazoline-7-carboxamide] showed an IC50 of 25 nM. In the case of `O=C(N[C@@H](c1ccc(F)c(Cl)c1)[C@]1(F)CCNC1)c1ccc2cnc(NC3CCOCC3)nc2c1` [Compound I-36], the IC50 is reported as 1.6 nM. `O=C(N[C@H](c1ccc(Cl)c(F)c1)[C@@H]1CCCN1)c1ccc2cnc(NC3CCOCC3)nc2c1` (stereo in doubt) [Compound I-23, 2-(tetrahydropyran-4-ylamino)-quinazoline-7-carboxylic acid [(S)-(4-chloro-3-fluoro-phenyl)-(R)-pyrrolidin-2-yl-methyl]-amide] gave an IC50 of 2.3 nM. With `COc1ccc([C@H](NC(=O)c2ccc3cnc(NC4CCOCC4)nc3c2)c2cnn(C)c2)cc1F` [Compound I-32, 2-(tetrahydropyran-4-ylamino)-quinazoline-7-carboxylic acid [(S)-(3-fluoro-4-methoxy-phenyl)-(1-methyl-1H-pyrazol-4-yl)-methyl]-amide] the IC50 was 1.1 nM. `O=C(N[C@@H](c1ccc(F)c(Cl)c1)[C@H]1CCNC1)c1ccc2cnc(NC3CCOCC3)nc2c1` (stereo in doubt) [Compound I-11, 2-(tetrahydropyran-4-ylamino)-quinazoline-7-carboxylic acid [(S)-(3-chloro-4-fluoro-phenyl)-(R)-pyrrolidin-3-yl-methyl]-amide] showed an IC50 of 6.4 nM. With `Cn1cc([C@@H](NC(=O)c2ccc3cnc(NC4CCOCC4)nc3c2)c2ccc(F)c(Cl)c2)cn1` [Compound I-55, 2-(Tetrahydro-pyran-4-ylamino)-quinazoline-7-carboxylic acid [(S)-(3-chloro-4-fluoro-phenyl)-(1-methyl-1H-pyrazol-4-yl)-methyl]-amide] the IC50 was 2.7 nM. `COc1ccc([C@@H](NC(=O)c2ccc3cnc(NC4CCOCC4)nc3c2)c2cnn(C)c2)cc1C#N` [Compound I-49, (R)-N-((3-cyano-4-methoxyphenyl)(1-methyl-1H-pyrazol-4-yl)methyl)-2-(tetrahydro-2H-pyran-4-ylamino)quinazoline-7-carboxamide] gave an IC50 of 141 nM.

Same assay, conditions: TABLE II; 5nM ERK-2 enzyme, 25µM ATP, S/T17 peptide substrate; single assay or mean of multiple assays
Molecule `COc1ccc(C(NC(=O)c2cc(F)c3cnc(NC4CC5CC4CO5)nc3c2)c2cnn(C)c2)cc1F` (centres unmarked) [II-34] has an IC50 of 1000 nM. In the case of `COc1ccc([C@H](NC(=O)c2cc(F)c3cnc(N[C@@H]4CCOC[C@@H]4F)nc3c2)c2cnn(C)c2)cc1F` [II-15], the IC50 is reported as 4.3 nM. For `Cn1nccc1[C@@H](NC(=O)c1ccc2cnc(NC3CCOCC3)nc2c1)c1ccc(C#N)c(Cl)c1` [II-40], the IC50 was 26 nM. In the case of `COc1ccc([C@H](NC(=O)c2ccc3cnc(NC4CS(=O)(=O)C4)nc3c2)c2cnn(C)c2)cc1F` [II-3], the IC50 is reported as 52.8 nM.
